Source: patent US11478474B2, “2-(3′-(hydroxymethyl)-1-methyl-5-((5-(2-methyl-4-(oxetan-3-yl)piperazin-1-yl)pyridin-2-yl)amino)-6-oxo-1,6-dihydro-[3,4′-bipyridin]-2′-yl)-7,7-dimethyl-7,8-dihydro-2H-cyclopenta[4,5]pyrrolo[1,2-a]pyrazin-1(6H)-one as a BTK inhibitor” (HUTCHISON MEDIPHARMA LIMITED, priority 2020, dated 2022)

Key:
[1] = biological target: BTK recombinant protein (Homo sapiens (Human), UniProt Q06187); experiment: Determination of biochemical BTK (Z'-LYTE kinase assay)
Text: Example 2 Determination of Biochemical BTK
(§1) 1. Reagents and Materials
BTK recombinant protein: Invitrogen, Cat #PV3363;
Z′-LYTE® kinase test kit-tyrosine 1 peptide: Invitrogen, Cat #PV3190;
Z′-LYTE® biochemical assay employs a fluorescence resonance energy transfer (FRET)—based, coupled-enzyme format and is based on the differential sensitivity of phosphorylated and non-phosphorylated peptides to proteolytic cleavage. Both ends of the short peptide substrate are labeled with two fluorescent groups to form a FRET paired combination. In the primary reaction (the Kinase Reaction), the kinase transfers the γ-phosphate of ATP to a single […] residue on the short peptide substrate. In the secondary reaction (the development reaction), the non-phosphorylated short peptides were recognized and cleaved by a site-specific protease (the development reagent). Phosphorylated short peptides can resist such cleavage. Cleavage of short peptides can disrupt the donor (such as coumarin) and receptor fluorophores (fluorescein) on the short peptides, while the phosphorylated short peptides can maintain FRET. The calculation method of the ratio is as follows, and the ratio of the respective emission signals generated by the donor fluorophores emitted (after excitation at 400 nm) to the receptors is calculated. Emission signal ratio=emitted light by coumarin (445 nm)/emitted light by fluorescein (520 nm). If the FRET short peptide is phosphorylated (such as no kinase inhibitor), the emitted light ratio will remain in a lower level. If the FRET short peptide is non-phosphorylated (such as kinase inhibitor), the emitted light ratio will be in a higher level. In this way, the inhibitory effects of different compound inhibitors on BTK kinase activity would be distinguished.
The experiment were carried out according to the instructions of the Z′-LYTE® kinase test kit-tyrosine 1 peptide. Reagent preparation: 1.33× kinase buffer: 5× kinase buffer was diluted with water to 1.33× kinase buffer; an enzyme solution: the kinase was dissolved in 1.33× kinase buffer with the final working concentration being 3.32 nM; a short peptide solution: a short peptide stock solution (1 mM dissolved in DMSO) was dissolved in 1.33× kinase buffer with the final working concentration being 2 μM; Z′-LYTE Tyr01 phosphorylated short peptide solution, 0.6 μl of stock solution (1 mM dissolved in DMSO) was dissolved in 149.4 μl of 1.33× kinase buffer; an ATP solution: an ATP stock solution (10 mM aqueous solution) was dissolved in 1.33× kinase buffer with the final working concentration being 32 μM; a color-developing solution: color-developing solution B was dissolved in color-developing buffer with the final working concentration being 1× color-developing solution; 4× compound preparation: the compound was diluted in 3-fold gradient concentration to finally obtain 4% DMSO aqueous solution containing different concentrations of the compound, with the final working concentration being 3000, 1000, 333.33, 111.11, 37.04, 12.35, 4.12, 1.37 nM, 8 concentration points in total.
Specific steps of the experiment: In the experiment, there were three control groups, each with 8 replicate wells, which were C1 100% inhibition group (no ATP), C2 0% inhibition group (with ATP), and C3 100% phosphorylation group, respectively. 2.5 μl of serially diluted compound was added to each well of a 384-well plate, with double replicate wells, and 4% DMSO solution was added to wells C1, C2, and C3. After that, except for wells C3, 2.5 μl of BTK enzyme solution was added to each remaining well, which was left to stand at 4° C. for 30 minutes. After that, except for wells C3, 2.5 μl of short peptide solution was added to each well, and 5 μl of phosphorylated short peptide solution was added to each of wells C3. 2.5 μl of 1.33× kinase buffer was added to each of wells C1 and C3, and 2.5 μl of ATP solution was added to each of the remaining wells. […]

[2] = biological target: phosphorylated BTK in Ramos cells (Homo sapiens (Human), UniProt Q06187); experiment: Determination of phosphorylated BTK in Ramos cells (BTK phospho-Y223 HTRF); format: cell-based; conditions: anti-human IgM + hydrogen peroxide stimulation
Experimental: Determination of Phosphorylated BTK in Ramos Cells
as §1
Ramos cells: Ramos cells were purchased from American Standard Biological Collection Center ATCC Cell Bank, PRMI 1640 medium containing L-glutamine, 1.5 g/L of sodium bicarbonate, 2.383 g/L of HEPES solution, 0.11 g/L of sodium pyruvate and 4.5 g/L of glucose was used, added 10% fetal bovine serum FBS, and placed in a 5% CO2, 37° C. cell incubator for normal culture;
Phosphorylated BTK HTRF detection kit (BTK phospho-Y223 HTRF kit): Cisbio, Cat #63ADK017PEH;
Ramos cells were starved in PRMI 1640 medium with 1% FBS for 2 hours. The starved Ramos cells were diluted with Hank's balanced salt solution to 5.0×10^6 cells/ml, seeded in a 96-well plate with 20 μL/well (1.0×10^5 cells/well), and cultured in a 5% CO2, 37° C. cell incubator. After culturing for 1 hour, the test compound was diluted with Hank's balanced salt solution in 4-fold gradient to the corresponding concentrations, and then 5 μL/well of the diluted test compound with different concentrations (the final concentrations of the test compound were 3.0, 0.75, 0.188, 0.047, 0.012, 0.0029, 0.0007 and 0.00018 μM, and the final concentration of DMSO was 0.3%, double replicate wells) or 5 μL/well of control solution (1.5% DMSO, 8 replicate wells) were added to 20 μL/well of cell culture system, which incubated together for another hour, then 5 μL/well of a mixed solution of human immunoglobulin M (final concentration was 10 μg/mL) and hydrogen peroxide (final concentration was 3.3 mM) diluted with Hank's balanced salt solution was added to the treating wells for the test compound and the control treating wells for anti-human immunoglobulin M, and 5 μL/well of Hank's balanced salt solution was added to negative control treating wells. The plate was incubated in a 5% CO2, 37° C. cell incubator for 10 minutes.
10 μL/well of cell lysis buffer was added to each well of a 96-well plate, which was mixed well and lysed at room temperature for 30 minutes. 16 μL/well of lysis buffer was pipetted to a new 384 well plate, and then added 4 μL/well of phosphorylated BTK antibody, centrifuged (1000 rpm) for 1 minute, then shaken for 1 minute, further centrifuged (1000 rpm) for 1 minute, and finally placed in a constant temperature incubator overnight. Detection was performed on the next day.
The 384 well plate incubated overnight in the constant temperature incubator was taken out to detect the luminescence signal using the Envision microwell plate reader at the […]. The reading value at 665 nm/615 nm of each well multiplied by 104 was used as the signal value of each well.
The average signal value of the wells supplemented with the mixed solution of human immunoglobulin M (final concentration was 10 μg/mL) and hydrogen peroxide (final concentration was 3.3 mM) without the test compound was regarded as the high value, and the average signal value of the wells without immunoglobulin M stimulation and without the test compound was regarded as the low value. According to the signal value in each well, the inhibition ratio (%) of each concentration of compounds was calculated, and the 205 model in XL-Fit 5.3 software (ID Business Solutions Limited) was used to obtain an IC50 value.
The inhibition ratio is calculated as follows: inhibition ratio (%)=100%−{(treating well for the test compound−negative control treating well)/(control treating well for anti-human immunoglobulin M−negative control treating well)}×100%, wherein,
Treating well for the test compound: represents the signal value of Ramos cells treated with anti-human immunoglobulin M, hydrogen peroxide and the test compound.
Control treating well for anti-human immunoglobulin M: represents the signal value of Ramos cells treated with anti-human immunoglobulin M, hydrogen peroxide but without the test compound. […]

Chain of BTK recombinant protein (Q06187 whole entry): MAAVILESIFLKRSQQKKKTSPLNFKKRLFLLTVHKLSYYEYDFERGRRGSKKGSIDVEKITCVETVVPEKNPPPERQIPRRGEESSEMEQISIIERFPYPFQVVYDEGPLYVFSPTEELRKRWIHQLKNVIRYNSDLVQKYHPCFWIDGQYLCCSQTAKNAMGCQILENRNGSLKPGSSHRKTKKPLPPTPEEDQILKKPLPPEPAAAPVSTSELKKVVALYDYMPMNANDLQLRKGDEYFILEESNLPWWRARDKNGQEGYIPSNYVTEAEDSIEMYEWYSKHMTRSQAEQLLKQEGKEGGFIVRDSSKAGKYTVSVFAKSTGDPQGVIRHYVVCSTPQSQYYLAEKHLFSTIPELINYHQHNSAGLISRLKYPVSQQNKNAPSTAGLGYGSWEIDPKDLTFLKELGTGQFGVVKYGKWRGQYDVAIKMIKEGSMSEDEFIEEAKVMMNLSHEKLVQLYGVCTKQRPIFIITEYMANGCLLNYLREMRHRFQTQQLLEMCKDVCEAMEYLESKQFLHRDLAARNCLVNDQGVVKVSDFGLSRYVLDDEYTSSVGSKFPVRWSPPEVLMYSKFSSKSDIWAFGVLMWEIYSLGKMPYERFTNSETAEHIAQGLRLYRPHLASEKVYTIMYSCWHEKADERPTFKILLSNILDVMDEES
Chain of phosphorylated BTK in Ramos cells (Q06187 whole entry): as above

| SMILES | IC50 [1] | IC50 [2] |
| --- | --- | --- |
| COC1CN(c2ccc(Nc3cc(-c4ccnc(-n5ccn6c7c(cc6c5=O)CC(C)(C)C7)c4CO)cn(C)c3=O)nc2)C1 [Compound 35] | 17 nM | 6 nM |
| Cn1cc(-c2ccnc(-n3ccn4c5c(cc4c3=O)CC(C)(C)C5)c2CO)cc(Nc2ccc(C3=CCN(C4COC4)CC3)cn2)c1=O [Compound 36] | 31 nM | 12 nM |
| Cn1cc(-c2ccnc(-n3ccn4c5c(cc4c3=O)CC(C)(C)C5)c2CO)cc(Nc2ccc(-c3ccc(C4COC4)cc3)cn2)c1=O [Compound 37] | 132 nM | 11 nM |
| [2H]C([2H])([2H])n1cc(-c2ccnc(-n3ccn4c5c(cc4c3=O)CC(C)(C)C5)c2CO)cc(Nc2ccc(N3CCN(C4COC4)C[C@@H]3C)cn2)c1=O [Compound 39] | 24 nM | 3 nM |
| CC(C)Nc1cc(-c2ccnc(-n3ccn4c5c(cc4c3=O)CC(C)(C)C5)c2CO)cn(C)c1=O [Compound 40] | > 3000 nM | > 3000 nM |
| CN(c1ccc(Nc2cc(-c3ccnc(-n4ccn5c6c(cc5c4=O)CC(C)(C)C6)c3CO)cn(C)c2=O)nc1)C1COC1 [Compound 41] | 12 nM | 2 nM |
| Cn1cc(-c2ccnc(-n3ccn4c5c(cc4c3=O)CC(C)(C)C5)c2CO)cc(Nc2ccc(NC3CCCOC3)cn2)c1=O (stereo not shown) [Compound 45] | 11 nM | 5 nM |
| Cn1cc(-c2ccnc(-n3ccn4c5c(cc4c3=O)CC(C)(C)C5)c2CO)cc(Nc2ccc(N[C@@H]3CC[C@@H](CO)OC3)cn2)c1=O [Compound 46] | 8 nM | 5 nM |
| Cn1cc(-c2ccnc(-n3ccn4c5c(cc4c3=O)CC(C)(C)C5)c2CO)cc(Nc2ccc(C(=O)N3CCOCC3)cn2)c1=O [Compound 47] | 3 nM | 3 nM |

Continued, values first:

| IC50 [1] | IC50 [2] | SMILES |
| --- | --- | --- |
| 10 nM | 8 nM | COCCN(c1ccc(Nc2cc(-c3ccnc(-n4ccn5c6c(cc5c4=O)CC(C)(C)C6)c3CO)cn(C)c2=O)nc1)C(C)C [Compound 51] |
| 18 nM | 18 nM | C[C@H]1CN(C2COC2)CCN1c1ccc(Nc2cc(-c3ccnc(-n4ccn5c(cc6cccc(F)c65)c4=O)c3CO)cn(C)c2=O)nc1 [Compound 52] |
| 33 nM | 25 nM | C[C@H]1CN(C2COC2)CCN1c1ccc(Nc2cc(-c3ccnc(-n4ccn5c(cc6c(F)cccc65)c4=O)c3CO)cn(C)c2=O)nc1 [Compound 53] |
| 15 nM | 16 nM | Cc1cc(Nc2cc(-c3ccnc(-n4ccn5c6c(cc5c4=O)CC(C)(C)C6)c3CO)cn(C)c2=O)ncn1 [Compound 54] |
| 19 nM | 8 nM | Cn1cc(-c2ccnc(-n3ccn4c5c(cc4c3=O)CC(C)(C)C5)c2CO)cc(Nc2ccccn2)c1=O [Compound 55] |
| 4 nM | 2 nM | C[C@@H]1CN(c2ccc(Nc3cc(-c4ccnc(-n5ccn6c(c(F)c7cc(F)ccc76)c5=O)c4CO)cn(C)c3=O)nc2)[C@@H](C)CN1C1COC1 [Compound 61] |
| 21 nM | 3 nM | C[C@H]1CN(C2COC2)CCN1c1ccc(Nc2cc(-c3ccnc(-n4ccn5c6c(c(Br)c5c4=O)CC(C)(C)C6)c3CO)cn(C)c2=O)nc1 [Compound 62] |
| 14 nM | 2 nM | C[C@H]1CN(C2COC2)CCN1c1ccc(Nc2cc(-c3ncnc(-n4ccn5c6c(cc5c4=O)CC(C)(C)C6)c3CO)cn(C)c2=O)nc1 [Compound 65] |
| 11 nM | 2 nM | C[C@H]1CN(C2CCOC2)CCN1c1ccc(Nc2cc(-c3ccnc(-n4ccn5c6c(cc5c4=O)CC(C)(C)C6)c3CO)cn(C)c2=O)nc1 (stereo partly shown) [Compound 66] |
| 82 nM | 60 nM | C[C@H]1CN(C2COC2)CCN1c1ccc(Nc2cc(-c3ccnc(-n4ccn5c(cc6cccnc65)c4=O)c3CO)cn(C)c2=O)nc1 [Compound 67] |
| 5 nM | 2 nM | CC(=O)N1CCn2nc(Nc3cc(-c4ccnc(-n5ccn6c7c(cc6c5=O)CC(C)(C)C7)c4CO)cn(C)c3=O)cc2C1 [Compound 68, 2-(5-((5-acetyl-4,5,6,7-tetrahydropyrazolo[1,5-a]pyrazin-2-yl)amino)-3′-(hydroxymethyl)-1-methyl-6-oxo-1,6-dihydro-[3,4′-bispyridin]-2′-yl)-7,7-dimethyl-7,8-dihydro-2H-cyclopenta[4,5]pyrrolo[1,2-a]pyrazin-1(6H)-one] |
| 10 nM | 2 nM | COCCN1CCn2nc(Nc3cc(-c4ccnc(-n5ccn6c7c(cc6c5=O)CC(C)(C)C7)c4CO)cn(C)c3=O)cc2C1 [Compound 70, 2-(3′-(hydroxymethyl)-5-((5-(2-methoxymethyl)-4,5,6,7-tetrahydropyrazolo[1,5-a]pyrazin-2-yl)amino)-1-methyl-6-oxo-1,6-dihydro-[3,4′-bispyridin]-2′-yl)-7,7-dimethyl-7,8-dihydro-2H-cyclopenta[4,5]pyrrolo[1,2-a]pyrazin-1(6H)-one] |
| 58 nM | 97 nM | C[C@H]1CN(C2COC2)CCN1c1ccc(Nc2cc(-c3ccnc(-n4ccn5c6c(cc5c4=O)CC(C)(C)C6)c3C=O)cn(C)c2=O)nc1 [Compound 72] |
| 216 nM | 116 nM | Cn1cc(Nc2cc(-c3ccnc(-n4ccn5c6c(cc5c4=O)CCC6)c3CO)cn(C)c2=O)nn1 [Compound 73] |
